Data reported in PubChem BioAssay (NCI).
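Where inhibition never reached the appropriate level, the endpoint shown equals the highest concentration tested. Otherwise, values were interpolated linearly from a five-concentration, 48-hour dose response in 96-well plates. Definition used: TGI = concentration required for complete inhibition of growth.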

Key:
Assay in all cases: growth of human tumour cells (NCI), 48 h
[1] = test system: HCC-2998 colon
[2] = test system: OVCAR-5 ovarian
[3] = test system: SK-MEL-2 melanoma
[4] = test system: MDA-MB-231 breast
[5] = test system: PC-3 prostate
[6] = test system: MALME-3M melanoma
[7] = test system: HCT-15 colon
[8] = test system: IGROV1 ovarian
[9] = test system: MCF7 breast
[10] = test system: SK-MEL-5 melanoma
[11] = test system: OVCAR-4 ovarian
[12] = test system: MOLT-4 leukemia
[13] = test system: OVCAR-8 ovarian
[14] = test system: UACC-257 melanoma
[15] = test system: RXF 393 renal
[16] = test system: SF-295 CNS
[17] = test system: M14 melanoma
[18] = test system: SK-OV-3 ovarian
[19] = test system: HCT-116 colon
[20] = test system: RPMI-8226 leukemia
[21] = test system: NCI-H460 lung
[22] = test system: K-562 leukemia
[23] = test system: LOX IMVI melanoma
[24] = test system: NCI-H23 lung
[25] = test system: UO-31 renal
[26] = test system: SNB-19 CNS
[27] = test system: MDA-MB-435
[28] = test system: SN12C renal
[29] = test system: MDA-N
[30] = test system: U251 CNS
[31] = test system: CAKI-1 renal
[32] = test system: COLO 205 colon
[33] = test system: A549 NSCLC
[34] = test system: SF-539 CNS
[35] = test system: ACHN renal
[36] = test system: DU-145 prostate
[37] = test system: HS 578T breast
[38] = test system: HT29 colon
[39] = test system: A498 renal
[40] = test system: NCI-H522 lung
[41] = test system: TK-10 renal
[42] = test system: SNB-75 CNS
[43] = test system: SF-268 CNS
[44] = test system: SR leukemia
[45] = test system: BT-549 breast
[46] = test system: OVCAR-3 ovarian
[47] = test system: NCI/ADR-RES ovarian
[48] = test system: KM12 colon
[49] = test system: HOP-62 NSCLC
[50] = test system: SK-MEL-28 melanoma
[51] = test system: UACC-62 melanoma
[52] = test system: 786-0 renal
[53] = test system: EKVX NSCLC
[54] = test system: HOP-92 NSCLC
[55] = test system: T-47D breast
[56] = test system: HL-60(TB) leukemia
[57] = test system: SW-620 colon
[58] = test system: CCRF-CEM leukemia
[59] = test system: NCI-H226 lung

SMILES: CC12CC3OC(=O)C1COC14OC5(C2C1=O)C(O)(CCC1C4CC2OC24CC=CC(=O)C14C)C(=O)OC35C (stereo not given)
- TGI [1]: 32.8 µM
- TGI [2]: 34.9 µM
- TGI [3]: 28.1 µM
- TGI [4]: 37 µM
- TGI [5]: 40.1 µM
- TGI [6]: 52.8 µM
- TGI [7]: 37.7 µM
- TGI [8]: 42.8 µM
- TGI [9]: 40.9 µM
- TGI [10]: 11.5 µM
- TGI [11]: > 100 µM
- TGI [12]: 66.9 µM
- TGI [13]: > 100 µM
- TGI [14]: 39.4 µM
- TGI [15]: 13.4 µM
- TGI [16]: 69.5 µM
- TGI [17]: 44 µM
- TGI [18]: > 100 µM
- TGI [19]: 29.2 µM
- TGI [20]: 71.4 µM
- TGI [21]: > 100 µM
- TGI [22]: > 100 µM
- TGI [23]: 29.5 µM
- TGI [24]: 33.1 µM
- TGI [25]: 31.1 µM
- TGI [26]: 44.9 µM
- TGI [27]: 32.9 µM
- TGI [28]: 60.1 µM
- TGI [29]: 29.4 µM
- TGI [30]: 35.9 µM
- TGI [31]: 25.8 µM
- TGI [32]: 22.1 µM
- TGI [33]: > 100 µM
- TGI [34]: 28.4 µM
- TGI [35]: 30.8 µM
- TGI [36]: 27.7 µM
- TGI [37]: > 100 µM
- TGI [38]: > 100 µM
- TGI [39]: 43.3 µM
- TGI [40]: 19.8 µM
- TGI [41]: 30.8 µM
- TGI [42]: > 100 µM
- TGI [43]: > 100 µM
- TGI [44]: 48.3 µM
- TGI [45]: 9.66 µM
- TGI [46]: 28.7 µM
- TGI [47]: > 100 µM
- TGI [48]: 36.5 µM
- TGI [49]: 39.4 µM
- TGI [50]: 24.7 µM
- TGI [51]: 27.6 µM
- TGI [52]: 28.7 µM
- TGI [53]: > 100 µM
- TGI [54]: 68.1 µM
- TGI [55]: 37.3 µM
- TGI [56]: 28.7 µM
- TGI [57]: 34.5 µM
- TGI [58]: 24.1 µM

SMILES: CC(C)CCCC(C)[C@H]1CC[C@H]2[C@@H]3CC[C@H]4C[C@@H](CCC=C(c5cc(Cl)c(O)c(C(=O)OC(C)C)c5)c5cc(Cl)c(O)c(C(=O)OC(C)C)c5)CC[C@]4(C)[C@H]3CC[C@]12C (stereo not given in full)
- TGI [1]: > 50 µM
- TGI [2]: > 50 µM
- TGI [3]: > 50 µM
- TGI [4]: > 50 µM
- TGI [5]: > 50 µM
- TGI [7]: > 50 µM
- TGI [8]: > 50 µM
- TGI [9]: > 50 µM
- TGI [10]: > 50 µM
- TGI [11]: > 50 µM
- TGI [12]: > 50 µM
- TGI [13]: > 50 µM
- TGI [15]: > 50 µM
- TGI [16]: > 50 µM
- TGI [17]: > 50 µM
- TGI [18]: > 50 µM
- TGI [19]: > 50 µM
- TGI [20]: > 50 µM
- TGI [22]: > 50 µM
- TGI [23]: > 50 µM
- TGI [24]: > 50 µM
- TGI [26]: > 50 µM
- TGI [27]: > 50 µM
- TGI [28]: > 50 µM
- TGI [29]: > 50 µM
- TGI [30]: > 50 µM
- TGI [31]: > 50 µM
- TGI [32]: > 50 µM
- TGI [33]: > 50 µM
- TGI [34]: > 50 µM
- TGI [36]: > 50 µM
- TGI [37]: > 50 µM
- TGI [38]: > 50 µM
- TGI [39]: > 50 µM
- TGI [42]: > 50 µM
- TGI [43]: > 50 µM
- TGI [45]: > 50 µM
- TGI [46]: > 50 µM
- TGI [47]: > 50 µM
- TGI [48]: > 50 µM
- TGI [49]: > 50 µM
- TGI [50]: > 50 µM
- TGI [51]: > 50 µM
- TGI [52]: > 50 µM
- TGI [53]: > 50 µM
- TGI [54]: > 50 µM
- TGI [55]: > 50 µM
- TGI [56]: > 50 µM
- TGI [57]: > 50 µM
- TGI [58]: > 50 µM

SMILES: O=[N+]([O-])c1ccc(C(Nc2ccccc2)P(c2ccccc2)c2ccccc2)cc1 (stereo not given)
- TGI [2]: > 100 µM
- TGI [3]: > 100 µM
- TGI [4]: > 100 µM
- TGI [5]: > 100 µM
- TGI [6]: > 100 µM
- TGI [7]: > 100 µM
- TGI [8]: > 100 µM
- TGI [9]: > 100 µM
- TGI [10]: > 100 µM
- TGI [11]: > 100 µM
- TGI [12]: > 100 µM
- TGI [13]: > 100 µM
- TGI [14]: > 100 µM
- TGI [15]: > 100 µM
- TGI [16]: > 100 µM
- TGI [17]: > 100 µM
- TGI [18]: > 100 µM
- TGI [19]: > 100 µM
- TGI [21]: > 100 µM
- TGI [59]: > 100 µM
- TGI [22]: > 100 µM
- TGI [23]: > 100 µM
- TGI [24]: > 100 µM
- TGI [25]: > 100 µM
- TGI [26]: > 100 µM
- TGI [27]: > 100 µM
- TGI [28]: > 100 µM
- TGI [29]: > 100 µM
- TGI [30]: > 100 µM
- TGI [31]: > 100 µM
- TGI [32]: > 100 µM
- TGI [33]: > 100 µM
- TGI [34]: > 100 µM
- TGI [35]: > 100 µM
- TGI [36]: > 100 µM
- TGI [37]: > 100 µM
- TGI [38]: > 100 µM
- TGI [39]: > 100 µM
- TGI [40]: > 100 µM
- TGI [41]: > 100 µM
- TGI [42]: > 100 µM
- TGI [43]: > 100 µM
- TGI [44]: > 100 µM
- TGI [45]: > 100 µM
- TGI [47]: > 100 µM
- TGI [48]: > 100 µM
- TGI [49]: > 100 µM
- TGI [50]: > 100 µM
- TGI [51]: > 100 µM
- TGI [52]: > 100 µM
- TGI [53]: > 100 µM
- TGI [54]: > 100 µM
- TGI [55]: > 100 µM
- TGI [56]: > 100 µM
- TGI [57]: > 100 µM

SMILES: COc1cc2oc(=O)cc(C)c2cc1O
- TGI [1]: > 100 µM
- TGI [2]: > 100 µM
- TGI [3]: > 100 µM
- TGI [4]: > 100 µM
- TGI [5]: > 100 µM
- TGI [6]: > 100 µM
- TGI [7]: > 100 µM
- TGI [8]: > 100 µM
- TGI [9]: > 100 µM
- TGI [10]: > 100 µM
- TGI [11]: > 100 µM
- TGI [12]: > 100 µM
- TGI [13]: > 100 µM
- TGI [14]: > 100 µM
- TGI [15]: > 100 µM
- TGI [16]: > 100 µM
- TGI [17]: > 100 µM
- TGI [19]: > 100 µM
- TGI [20]: > 100 µM
- TGI [21]: > 100 µM
- TGI [59]: > 100 µM
- TGI [22]: > 100 µM
- TGI [23]: > 100 µM
- TGI [24]: > 100 µM
- TGI [25]: > 100 µM
- TGI [26]: > 100 µM
- TGI [27]: > 100 µM
- TGI [28]: > 100 µM
- TGI [29]: > 100 µM
- TGI [30]: > 100 µM
- TGI [31]: > 100 µM
- TGI [32]: > 100 µM
- TGI [33]: > 100 µM
- TGI [34]: > 100 µM
- TGI [35]: > 100 µM
- TGI [36]: > 100 µM
- TGI [37]: > 100 µM
- TGI [38]: > 100 µM
- TGI [39]: > 100 µM
- TGI [40]: > 100 µM
- TGI [41]: > 100 µM
- TGI [42]: > 100 µM
- TGI [43]: > 100 µM
- TGI [44]: > 100 µM
- TGI [45]: > 100 µM
- TGI [46]: > 100 µM
- TGI [47]: > 100 µM
- TGI [48]: > 100 µM
- TGI [49]: > 100 µM
- TGI [50]: > 100 µM
- TGI [52]: > 100 µM
- TGI [53]: > 100 µM
- TGI [54]: > 100 µM
- TGI [55]: > 100 µM
- TGI [56]: > 100 µM
- TGI [57]: > 100 µM
- TGI [58]: > 100 µM
